Measured values: PubChem BioAssay AID179 (DTP/NCI, 2004)
pEC50, pIC50: −log10 of the molar value. The source made the active and inactive calls.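 How the source made its calls: active means compounds giving half or more protection of infected cells from virus-caused growth loss, again on retest; inactive means the rest.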

Test system: CEM cells HIV-1 protection, formazan growth assay
Assay: NCI AIDS Antiviral Assay
Settings: for pIC50: measured here: growth of uninfected CEM cells
How it was run: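 Human CEM cells, uninfected and HIV-1-infected, received five drug concentrations, and growth was read by soluble formazan assay. Compounds giving at least 50% protection were retested; reproducible 100% protection defined confirmed active.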

| SMILES | pEC50 | pIC50 | outcome |
| --- | --- | --- | --- |
| CC(C)(C)OC(=O)NC(Cc1ccc(O)cc1)/C(O)=C(\C#N)c1c(F)c(F)c(F)c(F)c1F (stereo not drawn) | < 3.70 | 3.91 | – |
| CO/N=C(/C(=O)Nc1c[n+](CC(=O)[O-])cs1)c1csc(N)n1 | < 3.84 | < 3.84 | – |
| C=C(C)CCNCC/C=C\[Si](C)(C)C | < 2.93 | < 2.93 | – |
| Cc1cc(C)nc(NS(=O)(=O)c2ccc(NC(=O)c3cccc4c(Nc5ccc(S(=O)(=O)Nc6nc(C)cc(C)n6)cc5)c5ccc(Cl)cc5nc34)cc2)n1 | < 4.07 | < 4.07 | – |
| NC(=O)N/N=C(/CC1C(=O)Oc2ccccc21)c1ccccc1O (stereo not drawn) | < 3.26 | 3.53 | – |
| Cc1cc(C)nc(NC(P(=O)(O)O)P(=O)(O)O)n1 | < 3.70 | < 3.70 | – |
| Cc1cc2nc(-c3ccccc3Cl)[nH]c2cc1C | < 4.00 | 4.49 | – |
| c1csc(-c2nnc(C34CC5CC(CC(C5)C3)C4)o2)c1 | < 3.70 | 4.30 | – |
| CNC(=O)C(C(=O)NC)n1cnc(C(=O)OC)c1O | < 3.70 | < 3.70 | – |
| OCC1CC(F)C(n2cnc3c(Br)ncnc32)O1 (stereo not drawn) | < 3.80 | 4.56 | – |
| CCSc1nnc(CSc2nc(-c3ccccc3)c(-c3ccccc3)[nH]2)n1-c1ccccc1 | < 4.67 | < 4.67 | – |
| Cc1ccc(/C=C2\N=C(N3CCCC(CO)C3)NC2=O)cc1 (stereo not drawn) | < 3.70 | < 3.70 | – |
| NC(=O)c1cn(C2OC(CO)C(O)C2O)c2ncnc(N)c12 (stereo not drawn) | < 6.70 | 8.25 | – |
| C=CCC1(c2ccccc2)Oc2ccccc2-n2cccc2C1=O (stereo not drawn) | 5.15 | 4.98 | – |
| Cc1cc(S(=O)(=O)Nc2nc(Nc3ccccc3)nn2C)c(S)cc1Cl | < 3.70 | 3.78 | – |
| CCCNCCCC(NC(C)=O)C(=O)NCc1ccccc1 (stereo not drawn) | < 3.09 | < 3.09 | – |
| O=C1CC(=O)N(CCc2ccccc2)S(=O)(=O)N1CCc1ccccc1 | < 3.70 | 4.45 | – |
| O=C1/C(=C/c2ccccc2)CN(C(=O)Oc2ccc(Cl)cc2)C/C1=C\c1ccccc1 | – | – | inactive |
| COP(=N[Si](C)(C)C)(OC)OC | < 3.70 | < 3.70 | – |
| O=C1CN(c2ccccc2)C(=O)CN1NCNN1CC(=O)N(c2ccccc2)CC1=O | < 3.70 | < 3.70 | – |
| Cc1cn([C@H]2C[C@H](N=[N+]=[N-])[C@@H](COC(=O)CCC(=O)OC3CN(Cc4ccccc4)C(=O)N(Cc4ccccc4)C3)O2)c(=O)[nH]c1=O | 6.02 | 4.05 | – |

| SMILES | pEC50 | pIC50 | outcome |
| --- | --- | --- | --- |
| CCC1CC[N-]CC1.CCC1CC[N-]CC1.CCC1CC[N-]CC1.CCC1CC[N-]CC1.N#C[S-].N#C[S-].[Mn] | < 3.70 | 4.56 | – |
| O=C(O)C[C@@H]1C(=O)OC2C(COC(=O)c3cc(O)c(O)c(O)c3)OC(OC(=O)c3cc(O)c(O)c(O)c3)C(OC(=O)c3cc(O)c(O)c4c3C1[C@H](O)C(=O)O4)C2OC(=O)c1cc(O)c(O)c(O)c1 (stereo partly drawn) | 5.83 | 4.89 | – |
| CC1=NN(C(=O)c2ccc(Cl)cc2)C(=O)/C1=C/c1cccc(O)c1 | < 5.10 | < 5.10 | – |
| NC(=S)N/N=C(\C(=O)Nc1cccc([N+](=O)[O-])c1)c1nc2ccc([N+](=O)[O-])cc2[nH]c1=O | < 3.54 | 4.02 | – |
| COC(=O)c1ccccc1/C=C1/Cc2cccc(C)c2C1=O | < 3.70 | < 3.70 | – |
| O=C1O/C(=C(\Br)c2ccccc2)c2ccccc21 | < 3.70 | 5.44 | – |
| CC1=C(C(=O)CC(=O)C(=O)Nc2ccccc2C(F)(F)F)Sc2ccccc2N1 | – | – | inactive |
| CCOC(=O)C(=CNC(=S)c1cccnc1)C(=O)OCC | < 3.70 | 4.75 | – |
| O=C1CSC(=S)N1 | < 2.73 | 3.10 | – |
| COc1c2c(cc3c(CCc4ccccc4)cc(=O)oc13)CCC(C)(C)O2 | < 4.84 | < 4.84 | – |
| CC1Cn2c(nnc2-c2ccccc2O)S1 (stereo not drawn) | – | – | inactive |
| NNC1=Cn2c(nc3ccccc32)NN1 | – | – | inactive |
| CCOP(=O)(OCC)C(Nc1ccc(F)cc1)c1ccccc1 (stereo not drawn) | < 3.70 | 4.05 | – |
| COC(=O)c1cc(C#N)[nH]c1-c1ccc(C)s1 | < 3.70 | 4.45 | – |
| Cc1csc2c(P(=O)(OC(C)C)OC(C)C)c(-c3ccccc3)cn12 | < 3.70 | 4.48 | – |
| COc1cccc(/C=N/[N-]C(=O)c2ccncc2)c1[O-].[Cu+2].[OH3+] | < 4.97 | < 4.97 | – |
| CC(C)NC(=O)CNC(=O)c1ccccc1SC(=O)CCCC[n+]1ccccc1 | < 6.24 | – | – |
| CC(C)(C)c1ccc(O)c(C(O)c2cccnc2)c1 (stereo not drawn) | < 3.70 | 4.21 | – |
| Cc1nn(C)c2nc(=O)n(C)c(=O)c-2[n+]1[O-] | < 3.70 | 4.57 | – |
| CC(O)C1OC(O)C2OC(C)(C)OC12 (stereo not drawn) | < 3.70 | < 3.70 | – |
| O=C1NC(N2CCCCC2)=N/C1=C\c1ccccc1 | < 3.70 | < 3.70 | – |

| SMILES | pEC50 | pIC50 | outcome |
| --- | --- | --- | --- |
| O=S1(=O)C/C(=C\N2CCOCC2)c2ccccc21 | < 3.70 | < 3.70 | – |
| CCOc1ccc(Nc2ccc(N=Nc3c(N)c(C)cc(N=Nc4ccc(-c5ccc(N=Nc6ccc(O)c(C(=O)O)c6)cc5)cc4)c3N)cc2S(=O)(=O)O)cc1 | 4.97 | 4.10 | – |
| C=C1CCC(OC(C)=O)C2(C)C(OC(C)=O)CC3OC3(C)C2C(OC(C)=O)C2C(C)C(=O)OC2C1Cl (stereo not drawn) | < 3.70 | < 3.70 | – |
| NC(N)=NC(N)=Nc1cccc(S(=O)(=O)c2cccc(N=C(N)N=C(N)N)c2)c1 | 3.90 | < 3.70 | – |
| CC1(C)CN(C(=O)OCc2ccccc2)[C@@H]2N1C(=O)[C@@]2(C)OCCCO[C@@]1(C)C(=O)N2[C@@H]1N(C(=O)OCc1ccccc1)CC2(C)C | < 3.70 | 4.57 | – |
| COC(=O)C1=C(C(=O)OC)C(C(=O)OC)N2C=CC=CC2=C1C(=O)OC (stereo not drawn) | < 3.70 | < 3.70 | – |
| Cc1cccc(N=N/C(=N\NC(=O)c2cc(Cl)ccc2O)c2ccc(N(CCC#N)CCC#N)cc2C)c1 | < 3.70 | 4.51 | – |
| CCN(CC)CCNC(=O)c1ccccc1NC(=O)C(=O)Nc1ccccc1C(=O)NCCN(CC)CC | < 5.16 | < 5.16 | – |
| c1cc2sc1CSCCSCCSC2 | < 4.42 | < 4.42 | – |
| OCc1ccc(C2CC(c3ccco3)=NN2c2ccccc2)o1 (stereo not drawn) | < 4.77 | < 4.77 | – |
| CN(CC#N)[C@H]1CCC[C@]1(O)C#C[Si](C)(C)c1ccccc1 | < 4.78 | < 4.78 | – |
| S=C(Nc1cccc2ccccc12)NN1CCCCCC1 | < 4.76 | < 4.76 | – |
| O=C1OC(c2ccccc2)=N/C1=C\c1ccc2ccccc2c1 | < 4.76 | < 4.76 | – |
| Cc1cccc(CC(Cc2c(C)cccc2C(=O)O)C(=O)O)c1 (stereo not drawn) | < 3.70 | < 3.70 | – |
| Nc1nc(Cl)cc(NCC2(CO)CCC(OCc3ccccc3)C2)n1 (stereo not drawn) | 4.84 | 4.75 | – |
| O=c1c(SCc2ccccc2)c(N2CCOCC2)cnn1-c1ccccc1 | < 3.18 | 3.24 | – |
| COc1ccc2c(c1)c(=O)c1c(NCCN(C)C)ccc3c(=O)n(CCN(C)C)c(=O)n2c31 | 7.69 | 7.49 | – |
| Cn1cc(N)cc1C(=O)Nc1cc(C(=O)Nc2ccc(S(=O)(=O)O)c3cc(S(=O)(=O)O)ccc23)n(C)c1 | 4.50 | 3.49 | – |
| CCNCCNC(=O)c1ccc(Br)cc1 | – | – | inactive |
| CC1=NN(C(=O)CC(=O)Nc2cccc(C)c2)C(=O)C1N=Nc1ccc(S(=O)(=O)CCOS(=O)(=O)O)cc1 (stereo not drawn) | < 5.70 | 5.90 | – |
